Source: patent US11578061B2, “Inhibitors of LRRK2 kinase” (Halia Therapeutics, Inc., priority 2021, dated 2023)

What follows are molecules tested against recombinant human LRRK2 (catalytic domain only [amino acids 970-2527], GST-tagged) (Homo sapiens (Human), UniProt Q5S007) (assay: LRRK2 Enzymatic Assay). Conditions: LRRKtide substrate, [32P]-ATP.
Type: biochemical
How it was run: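 Radiometric P81 filter-binding read-out of [32P]-ATP transfer to LRRKtide (20 μM) by 30 nM GST-LRRK2 970-2527, 2 h at room temperature after 20 min compound preincubation (10 μM–0.5 nM, 1% DMSO). IC50 derived from % remaining activity versus DMSO.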

Sequence of recombinant human LRRK2 (catalytic domain only [amino acids 970-2527], GST-tagged) (Q5S007 970-2527): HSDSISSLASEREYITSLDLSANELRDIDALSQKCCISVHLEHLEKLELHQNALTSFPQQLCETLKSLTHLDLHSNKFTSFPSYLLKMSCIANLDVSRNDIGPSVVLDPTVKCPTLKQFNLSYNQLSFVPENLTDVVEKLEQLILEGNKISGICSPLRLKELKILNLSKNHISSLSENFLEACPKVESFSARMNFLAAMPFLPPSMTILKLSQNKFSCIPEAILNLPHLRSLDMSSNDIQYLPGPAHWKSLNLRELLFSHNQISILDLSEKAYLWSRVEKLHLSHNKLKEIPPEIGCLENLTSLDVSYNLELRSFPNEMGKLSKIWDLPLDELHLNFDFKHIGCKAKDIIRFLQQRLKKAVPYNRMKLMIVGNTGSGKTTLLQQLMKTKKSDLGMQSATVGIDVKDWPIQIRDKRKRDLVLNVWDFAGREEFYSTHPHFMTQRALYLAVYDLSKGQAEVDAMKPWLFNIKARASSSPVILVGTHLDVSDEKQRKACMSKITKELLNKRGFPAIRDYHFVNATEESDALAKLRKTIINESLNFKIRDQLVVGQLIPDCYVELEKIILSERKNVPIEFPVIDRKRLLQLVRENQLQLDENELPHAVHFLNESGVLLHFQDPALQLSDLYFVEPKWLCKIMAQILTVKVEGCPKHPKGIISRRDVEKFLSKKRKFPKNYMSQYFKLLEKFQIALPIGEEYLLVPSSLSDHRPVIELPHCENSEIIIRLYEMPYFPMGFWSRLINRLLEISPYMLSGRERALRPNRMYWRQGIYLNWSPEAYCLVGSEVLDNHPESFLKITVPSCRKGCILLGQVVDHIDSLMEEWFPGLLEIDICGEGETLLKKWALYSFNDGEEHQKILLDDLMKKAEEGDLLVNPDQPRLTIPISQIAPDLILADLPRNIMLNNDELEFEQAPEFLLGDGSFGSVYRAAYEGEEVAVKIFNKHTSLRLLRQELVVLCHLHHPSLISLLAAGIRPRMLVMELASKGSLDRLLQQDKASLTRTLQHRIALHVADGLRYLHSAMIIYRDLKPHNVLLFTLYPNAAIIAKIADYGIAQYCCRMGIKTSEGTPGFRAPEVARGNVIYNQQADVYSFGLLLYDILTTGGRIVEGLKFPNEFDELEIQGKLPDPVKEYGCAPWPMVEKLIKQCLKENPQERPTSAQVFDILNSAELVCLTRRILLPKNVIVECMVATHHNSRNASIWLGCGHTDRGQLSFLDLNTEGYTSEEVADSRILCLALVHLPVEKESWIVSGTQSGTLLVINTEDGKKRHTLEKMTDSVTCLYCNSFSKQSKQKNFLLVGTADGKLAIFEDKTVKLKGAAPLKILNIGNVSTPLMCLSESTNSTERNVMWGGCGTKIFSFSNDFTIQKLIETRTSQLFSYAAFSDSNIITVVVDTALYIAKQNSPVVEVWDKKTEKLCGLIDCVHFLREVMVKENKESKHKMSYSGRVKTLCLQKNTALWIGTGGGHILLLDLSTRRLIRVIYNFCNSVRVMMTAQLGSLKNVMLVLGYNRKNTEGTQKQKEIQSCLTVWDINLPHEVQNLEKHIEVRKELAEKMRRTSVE

| IC50 [nM] | Compound |
| --- | --- |
| 50 to 200 | CC(C)(O)[C@H]1CC[C@H](COc2nc(Nc3ccc(N4CCOCC4)cc3)ncc2F)CC1 [Example 144, 2-((1R,4R)-4-(((5-fluoro-2-((4-morpholinophenyl)amino)pyrimidin-4-yl)oxy)methyl)cyclohexyl)propan-2-ol] |
| < 50 | Cc1nn(C(C)(C)C#N)cc1Nc1ncc(Cl)c(OCC2CCC(NC3CC(F)(F)C3)CC2)n1 (stereo not shown) [Example 145, 2-(4-((5-chloro-4-((4-((3,3-difluorocyclobutyl)amino)cyclohexyl)methoxy)pyrimidin-2-yl)amino)-3-methyl-1H-pyrazol-1-yl)-2-methylpropanenitrile] |
| < 50 | Clc1cnc(Nc2ccc(N3CCOCC3)cc2)nc1OCC1CCCCC1 [Example 147, 5-chloro-4-(cyclohexylmethoxy)-N-(4-morpholinophenyl)pyrimidin-2-amine] |
| < 50 | Clc1cnc(Nc2ccc(N3CCOCC3)cc2)nc1OCC1CCOCC1 [Example 148, 5-chloro-N-(4-morpholinophenyl)-4-((tetrahydro-2H-pyran-4-yl)methoxy)pyrimidin-2-amine] |
| < 50 | Cc1nn(C(C)(C)C#N)cc1Nc1ncc(Cl)c(OCC2CC(C)OC(C)C2)n1 (stereo not shown) [Example 149, 2-(4-((5-chloro-4-((2,6-dimethyltetrahydro-2H-pyran-4-yl)methoxy)pyrimidin-2-yl)amino)-3-methyl-1H-pyrazol-1-yl)-2-methylpropanenitrile] |
| 50 to 200 | Cc1nn(C2CC(C#N)C2)cc1Nc1ncc(Cl)c(OCC2CCOC(C)(C)C2)n1 (stereo not shown) [Example 150, 3-(4-((5-chloro-4-((2,2-dimethyltetrahydro-2H-pyran-4-yl)methoxy)pyrimidin-2-yl)amino)-3-methyl-1H-pyrazol-1-yl)cyclobutane-1-carbonitrile] |
| < 50 | Cc1nn(C2CC(C#N)C2)cc1Nc1ncc(Cl)c(OCC2CC3(COC3)C2)n1 (stereo not shown) [Example 151, 3-(4-((4-((2-oxaspiro[3.3]heptan-6-yl)methoxy)-5-chloropyrimidin-2-yl)amino)-3-methyl-1H-pyrazol-1-yl)cyclobutane-1-carbonitrile] |
| < 50 | COc1cnc(Nc2ccc(N3CCOCC3)cc2)nc1OCC1CCCCC1 [Example 152, 4-(cyclohexylmethoxy)-5-methoxy-N-(4-morpholinophenyl)pyrimidin-2-amine] |
| 50 to 200 | FC1(F)CCC(COc2nc(Nc3ccc(N4CCOCC4)cc3)ncc2Cl)CC1 [Example 153, 5-chloro-4-((4,4-difluorocyclohexyl)methoxy)-N-(4-morpholinophenyl)pyrimidin-2-amine] |
| < 50 | Cc1nn(C(C)(C)C#N)cc1Nc1ncc(Cl)c(OCC2CC(F)(F)C2)n1 [Example 154, 2-(4-((5-chloro-4-((3,3-difluorocyclobutyl)methoxy)pyrimidin-2-yl)amino)-3-methyl-1H-pyrazol-1-yl)-2-methylpropanenitrile] |
| 50 to 200 | Cc1nn(C(C)(C)C#N)cc1Nc1ncc(C#N)c(OCC2CC(F)(F)C2)n1 [Example 155, 2-((1-(2-cyanopropan-2-yl)-3-methyl-1H-pyrazol-4-yl)amino)-4-((3,3-difluorocyclobutyl)methoxy)pyrimidine-5-carbonitrile] |
| 50 to 200 | COc1cnc(Nc2ccc(N3CCOCC3)cc2)nc1OCC1CCC(F)(F)CC1 [Example 156, 4-((4,4-difluorocyclohexyl)methoxy)-5-methoxy-N-(4-morpholinophenyl)pyrimidin-2-amine] |
| 50 to 200 | Cc1nn(C(C)(C)C#N)cc1Nc1ncc(Cl)c(OCC2CCC(C(F)(F)F)CC2)n1 (stereo not shown) [Example 157, 2-(4-((5-chloro-4-((4-(trifluoromethyl)cyclohexyl)methoxy)pyrimidin-2-yl)amino)-3-methyl-1H-pyrazol-1-yl)-2-methylpropanenitrile] |
| 50 to 200 | Cc1nn(C(C)(C)C#N)cc1Nc1ncc(Cl)c(OCC2COC2)n1 [Example 158, 2-(4-((5-chloro-4-(oxetan-3-ylmethoxy)pyrimidin-2-yl)amino)-3-methyl-1H-pyrazol-1-yl)-2-methylpropanenitrile] |
| < 50 | Cc1c(Nc2ncc(Cl)c(OCC3CC(F)(F)C3)n2)cnn1C1CC(C#N)C1 (stereo not shown) [Example 159, 3-(4-((5-chloro-4-((3,3-difluorocyclobutyl)methoxy)pyrimidin-2-yl)amino)-5-methyl-1H-pyrazol-1-yl)cyclobutane-1-carbonitrile] |
| 50 to 200 | Cc1nn(C2CC(C#N)C2)cc1Nc1ncc(Cl)c(OCC2CC(F)(F)C2)n1 (stereo not shown) [Example 160, 3-(4-((5-chloro-4-((3,3-difluorocyclobutyl)methoxy)pyrimidin-2-yl)amino)-3-methyl-1H-pyrazol-1-yl)cyclobutane-1-carbonitrile] |
| < 50 | COC1CCC(COc2nc(Nc3cn(C(C)(C)C#N)nc3C)ncc2Cl)CC1 (stereo not shown) [Example 161, 2-(4-((5-chloro-4-((4-methoxycyclohexyl)methoxy)pyrimidin-2-yl)amino)-3-methyl-1H-pyrazol-1-yl)-2-methylpropanenitrile] |
| 200 to 400 | COC1CCC(COc2ccnc(Nc3cn(C(C)(C)C#N)nc3C)n2)CC1 (stereo not shown) [Example 162, 2-(4-((4-((4-methoxycyclohexyl)methoxy)pyrimidin-2-yl)amino)-3-methyl-1H-pyrazol-1-yl)-2-methylpropanenitrile] |
| < 50 | CC(C)n1cc(Nc2ncc(F)c(OCC3CCNCC3(F)F)n2)cn1 (stereo not shown) [Example 164, 4-((3,3-difluoropiperidin-4-yl)methoxy)-5-fluoro-N-(1-isopropyl-1H-pyrazol-4-yl)pyrimidin-2-amine] |
| < 50 | Fc1cnc(Nc2ccc(N3CCOCC3)cc2)nc1OCC1CCNCC1F (stereo not shown) [Example 166, 5-fluoro-4-((3-fluoropiperidin-4-yl)methoxy)-N-(4-morpholinophenyl) pyrimidin-2-amine] |
| 50 to 200 | CC(=O)N[C@H]1CC[C@@H](COc2nc(Nc3ccc(N4CCOCC4)cc3)ncc2F)C1 [Example 178, N-((1S,3R)-3-(((5-fluoro-2-((4-morpholinophenyl)amino)pyrimidin-4-yl)oxy)methyl)cyclo-pentyl)acetamide] |
| < 50 | CC(=O)N[C@H]1CC[C@@H](COc2nc(Nc3cn(C(C)(C)C#N)nc3C)ncc2F)C1 [Example 180, N-((1S,3R)-3-(((2-((1-(2-cyanopropan-2-yl)-3-methyl-1H-pyrazol-4-yl)amino)-5-fluoropyrimidin-4-yl)oxy)methyl)cyclo-pentyl)acetamide] |
| 50 to 200 | COc1cc(C(=O)N2CCOCC2)c(F)cc1Nc1ncc(F)c(OC[C@H]2CC[C@H](NC(C)=O)CC2)n1 [Example 182, N-((1R,4R)-4-(((5-fluoro-2-((5-fluoro-2-methoxy-4-(morpholine-4-carbonyl)phenyl)amino)pyrimidin-4-yl)oxy)methyl)cyclo-hexyl)acetamide] |

| Compound | IC50 [nM] |
| --- | --- |
| Fc1cnc(Nc2ccc(N3C4CCC3COC4)cc2)nc1OCC1CCNCC1(F)F (stereo not shown) [Example 163, N-(4-(3-oxa-8-azabicyclo[3.2.1]octan-8-yl)phenyl)-4-((3,3-difluoropiperidin-4-yl)methoxy)-5-fluoropyrimidin-2-amine] | 50 to 200 |
| CC(=O)N[C@H]1CC[C@H](COc2nc(Nc3ccc(N4C5CCC4COC5)cc3)ncc2F)CC1 [Example 181, N-((1R,4R)-4-(((2-((4-(3-oxa-8-azabicyclo[3.2.1]octan-8-yl)phenyl)amino)-5-fluoropyrimidin-4-yl)oxy)methyl)cyclo-hexyl)acetamide] | < 50 |
